Data reported in patent US7939546B2, “Quinoline derivatives for modulating DNA methylation” (SuperGen, Inc., priority 2007, dated 2011).

Experiments:
Panc-1 = test: Cell-based growth assay (Cell-Titer-Glo), Panc-1; details: Homo sapiens; Panc-1, 96 hours; read-out: IC50 Values CTG
Method: (§1) Cell culture-based assays can be used to evaluate the ability of compounds of the invention to inhibit one or more cellular activities, such as cancer cell growth and/or survival. Numerous cancer cell lines can be obtained from the American Type Culture Collection (ATCC) and other sources. Briefly, cells are seeded into 96-well, tissue-culture treated, opaque white plates (Thermo Electron, Vantaa, Finland), at between 5000 and 10000 cells per well, depending on the speed of cell proliferation, in 100 μl of appropriate growth medium (determined by the ATCC). Cells are then exposed to the appropriate concentration of drug or an equal amount of DMSO (drug diluent) and allowed to grow in its presence for 96 hours. Following this, 100 μl of Cell-Titer-Glo (CTG) reagent (Promega, Inc., Madison, Wis.) is added to each well. Plates are then shaken for 2 minutes at room temperature to allow for cell lysis and incubated for 10 minutes at room temperature to stabilize the luminescent signal. Similar to the Kinase-Glo assay reagent from Promega, this reagent contains both luciferase enzyme and its substrate luciferin. Luciferase, activated by ATP in the cell lysate, catalyzes the conversion of luciferin to oxyluciferin, a reaction which produces light. […]

RKO = test: Cell-based growth assay (Cell-Titer-Glo), RKO; details: Homo sapiens, 96 hours, read-out: IC50 Values CTG
Method: Cell culture-based assays can be used to evaluate the ability of compounds of the invention to inhibit one or more cellular activities, such as cancer cell growth and/or survival. Numerous cancer cell lines can be obtained from the American Type Culture Collection (ATCC) and other sources. Briefly, cells are seeded into 96-well, tissue-culture treated, opaque white plates (Thermo Electron, Vantaa, Finland), at between 5000 and 10000 cells per well, depending on the speed of cell proliferation, in 100 μl of appropriate growth medium (determined by the ATCC). Cells are then exposed to the appropriate concentration of drug or an equal amount of DMSO (drug diluent) and allowed to grow in its presence for 96 hours. Following this, 100 μl of Cell-Titer-Glo (CTG) reagent (Promega, Inc., Madison, Wis.) is added to each well. Plates are then shaken for 2 minutes at room temperature to allow for cell lysis and incubated for 10 minutes at room temperature to stabilize the luminescent signal. Similar to the Kinase-Glo assay reagent from Promega, this reagent contains both luciferase enzyme and its substrate luciferin. Luciferase, activated by ATP in the cell lysate, catalyzes the conversion of luciferin to oxyluciferin, a reaction which produces light. The amount of light produced is proportionate to the amount of ATP in the cell lysate, which is itself proportional to cell number and gives an index of cellular proliferation.

HCT-116 = test: Cell-based growth assay (Cell-Titer-Glo), HCT-116; details: Homo sapiens; HCT-116, 96 hours; read-out: IC50 Values CTG
Method: as §1

p16 = test: RT-PCR assay for gene expression (p16) in RKO and HCT-116 cells; format: cell-based; details: for RNA expression levels of p16: FIG. 1, varying concentrations, forty eight hour incubation
Method: RKO and HCT-116 cells were treated with Cpd. AAA, Cpd. BBB, and Cpd. CCC at varying concentrations. After a forty eight hour incubation cells were harvested for RNA isolation using the Qiagen RNeasy Mini kit. RNA was quantified using a spectrophotometer and 1 μg of RNA was used for cDNA synthesis using the Bio-Rad iScript cDNA Synthesis Kit. RTPCR was performed using SYBER GreenER qPCR SuperMix for iCycler according to the manufacturer's protocol. Primer sequences used are as follows [NT] (SEQ ID NO: 2) and [NT] (SEQ ID NO: 3), MLH-1 [NT] (SEQ ID NO: 4) and [NT] (SEQ ID NO:5), [NT] (SEQ ID NO: 6) and [NT] (SEQ ID NO: 7), GAPDH [NT] (SEQ ID NO:8) and [NT] (SEQ ID NO:9), and […] (SEQ ID NO: 10) and [NT] (SEQ ID NO:11). Samples were analyzed on the iQ5 Multicolor Real-Time PCR Detection System from Bio-Rad. Data analysis was performed using the iQ5 Optical System Software version 2.0, Threshold Cycle (CT) and CT mean values were determined from this software. For each sample there are at least four reactions, two for p16 and two for GAPDH the housekeeping control. The mean CT value from the GAPDH reactions was subtracted from each of the corresponding p16 samples CT giving a value termed Delta CT. Then the Delta CT for the untreated p16 sample is subtracted from all treated Delta CT values giving another value termed Delta Delta CT. […] The duplicate samples are averaged together to get an average Relative Expression for each treatment and the Standard Error is calculated. Relative expression values for p15 and MLH-1 were calculated using the same method. […] AAA, Cpd. BBB, and Cpd. […] Cpd. […] Because the higher levels of p16 seemed to have less effect in causing re-expression of p16 there may be some issues with drug solubility or toxicity at the higher concentrations tested.

Cl.O=C(Nc1ccc(Sc2ccncc2)cc1)c1ccc(Nc2ccnc3ccccc23)cc1 [Cpd. AAA, N-[4-(pyridin-4-ylthio)phenyl]-4-(quinolin-4-ylamino)benzamide hydrochloride]
IC50 (Panc-1): 1800 nM | IC50 (RKO): 1220 nM | IC50 (HCT-116): 6150 nM | RNA expression levels of p16 (p16): increase the RNA expression levels of p16 | re-expression of p16 over no treatment (p16; concentration of 0.11 M (so in the source)): greatest re-expression of p16

Cl.Nc1cc(Sc2ccc(NC(=O)c3ccc(Nc4ccnc5ccccc45)cc3)cc2)ccn1 [Cpd. BBB, N-[4-(2-aminopyridin-4-ylthio)phenyl]-4-(quinolin-4-ylamino)benzamide hydrochloride]
IC50 (Panc-1): 1000 nM | IC50 (RKO): 740 nM | IC50 (HCT-116): 670 nM | RNA expression levels of p16 (p16): increase the RNA expression levels of p16
